Earlier results, collected in patent US20210322558A1, “PHENYLEPHRINE RESINATE PARTICLES AND USE THEREOF IN PHARMACEUTICAL FORMULATIONS” (JOHNSON & JOHNSON CONSUMER INC., priority 2013, published 2021).

Key:
[1] = 30 mg dose administered orally over eight hours

Row | fraction of a therapeutic dose excreted unchanged in the urine | metabolized to m-hydroxy-phenylglycol-sulfate, % of the dose [1] [%] | metabolized to m-hydroxymandelic acid, % of the dose [1] [%] | metabolized to phenylephrine-glucuronide, % of the dose [1] [%] | metabolized to phenylephrine-sulfate, % of the dose [1] [%] | Structure (SMILES)
1 | Less than 9% |  |  |  |  | CC(=O)Nc1ccc(O)cc1 [acetaminophen]
2 |  | 6 | 30 | 12 | 47 | CNC[C@H](O)c1cccc(O)c1.Cl [phenylephrine, (R)-1-(3-hydroxyphenyl)-2-methylaminoethanol]
